According to PMC11271341 (Clinical Pharmacokinetics, 2024):
Like-named read-outs stand apart in the source and are kept apart here.

Legend:
[1] = system: OCT2/MATE1; conditions: in vitro; pazopanib as OCT1/MATE1 inhibitor (so in the source); cited from earlier work
[2] = Metformin trough plasma concentration; type: in vivo, human; conditions: n = 18
[3] = exceeds the glomerular filtration rate; cited from earlier work
[4] = system: multidrug and toxin extrusion protein 1 (MATE1); conditions: in vitro studies; cited from earlier work
[5] = system: organic cation transporter 2 (OCT2); conditions: in vitro studies; cited from earlier work
[6] = Trifluridine plasma pharmacokinetics, three-phase crossover study in patients; type: in vivo; conditions: human, oral, median Tmax, range over the three phases, phases A, B and C
[7] = cited from earlier work

**Q.** For `N.N.[Cl][Pt][Cl]` [cisplatin], which “change in cisplatin exposure when combined with pazopanib” value [1] is on record?
**A.** Its value is “significant in vitro increase”.

**Q.** Which results are given for `CN(C)C(=N)N=C(N)N` [metformin]?
**A.** geometric mean Ctrough ([2]; metformin 500 mg b.i.d. in combination with trifluridine/tipiracil): 0.24 mg/L; geometric mean Ctrough ([2]; metformin monotherapy (day 14)): 0.15 mg/L

**Q.** For `N=C1CCCN1Cc1nc(O)nc(O)c1Cl` [tipiracil], which renal clearance [3] is on record?
**A.** Its renal clearance is ~ 300 mL/min.

**Q.** What about the “interaction with MATE1” value [4] of the same compound?
**A.** The value was “substrate and inhibitor”.

**Q.** What about the “interaction with OCT2” value [5] of the same compound?
**A.** The value was “substrate and inhibitor”.

**Q.** Which results are given for `O=c1[nH]c(=O)n([C@H]2C[C@H](O)[C@@H](CO)O2)cc1C(F)(F)F` [trifluridine]?
**A.** Tmax [6]: 46.8 to 60 min; increase of area under the curve vs normal renal function (≥ 90 mL/min) ([7]; mild renal impairment (creatinine clearance between 60 and 89 mL/min)): 31%; increase of area under the curve vs normal renal function (≥ 90 mL/min) ([7]; moderate renal impairment (between 30 and 59 mL/min)): 43%
